Values quoted from earlier work as cited in US20250120404A1, “BOTANICAL PESTICIDE COMPOSITIONS” (Mosquito Squad Franchising SPE LLC, priority 2023, published 2025).

Test system: mosquitoes
Details: average reported toxicity from literature, concentration/biomass

SMILES	Concentration of Oil Extract Necessary for Mosquito Death
CCC(=O)OCCc1ccccc1 [2-phenethyl proprionate]	Varying levels
C=CCc1ccc(O)c(OC)c1 [Eugenol]	Varying levels
CC(C)=CCC/C(C)=C/CO [Geraniol]	Varying levels
